Laboratory results from patent US10106797B2, “Methods for suppressing adipocyte differentiation” (SEOUL NATIONAL UNIVERSITY R&DB FOUNDATION, priority 2013, dated 2018).

Experiments:
PPAR-v [1] = experiment: Western blotting of PPAR-v protein expression in 3T3-L1 cells; assay type: cell-based, mouse
Description: (§1) HEK293 (human embryonic kidney) cells were obtained from the American Type Culture Collection (Manassas, Va.). 3T3-L1 and 3T3-F442A preadipocytes were kindly given by Dr. Jae-Woo Kim (Yonsei University, Seoul, Korea). Cells were cultured in DMEM supplemented with 10% fetal bovine serum (FBS). Differentiation of 3T3-L1 cells was induced with 1 μM dexamethasone, 500 μM 3-isobutyl-a-methylxanthine, and 5 μg/ml of insulin (DMI), which is designated DMI. From 2 to 8 days after DMI treatment, cells were maintained in DMEM containing 10% FBS and 1 μg/ml of insulin and the medium was changed every other day. Adipocyte differentiation of hADSCs was induced with DMI and 200 μM indomethacin in α-MEM supplemented with 10% FBS. Cells were incubated in 5% CO2 and 20% O2 at 37° C.
(§2) Proteins in cell lysates were electrophoresed on SDS-polyacrylamide gels and transferred to Immobilon-P membranes (Millipore, Billerica, Mass.). Membranes were preincubated with 5% skim milk in TTBS (Tris-buffered saline containing 0.1% Tween 20) for 30 min and incubated overnight with primary antibody diluted 1:500 to 1:3000 in the TTBS. The membranes were further incubated with a horseradish peroxidase conjugated secondary antibody for 1 h and visualized using Pierce ECL Plus western blotting substrate according to the manufacturer's instruction (Thermo Fisher Scientific, Waltham, Mass.).

CD36 = experiment: Quantitative RT-PCR of CD36 mRNA in 3T3-L1 cells; assay type: cell-based, mouse
Description: as §1
(§3) Total RNAs were isolated from cultured cells using TRIzol® (Invitrogen). The EasyScript™ cDNA Synthesis Kit (Applied Biological Materials Inc., Richmond, Canada) was used to synthesize cDNAs. The level of each cDNA was relatively quantified by being divided by the 18S rRNA level in the corresponding sample.

FABP4 = experiment: Quantitative RT-PCR of FABP4 mRNA in 3T3-L1 cells; assay type: cell-based, mouse
Description: as §1, §3

3T3-L1 cells = experiment: Adipocyte differentiation of 3T3-L1 cells, Oil-red O staining; assay type: cell-based, mouse; conditions: for adipose differentiation: amount dependent
Description: as §1
Adipocytes were fixed with 3.7% of formalin and stained with 0.3% Oil-red-O solution (Sigma-Aldrich) dissolved in isopropanol. 0.5% Oil-red-O (Sigma-Aldrich) was dissolved in isopropanol. Oil-red-O stock solution and H2O were mixed at a ratio of 6:4 and filtered. Then 60% Oil-red-O stock solution was incubated with the cells for 1 h and washed with distilled water and scanned for image.

C/EBP-β [2] = experiment: Quantitative RT-PCR of C/EBP-β mRNA in 3T3-L1 cells; assay type: cell-based, mouse
Description: as §1, §3

PPAR-v [3] = experiment: Quantitative RT-PCR of PPAR-v mRNA in 3T3-L1 cells; assay type: cell-based, mouse
Description: as §1, §3

PPAR-v [4] = experiment: Ubiquitination of PPAR-v, western blotting; assay type: cell-based; conditions: neddylation inhibited using siNEDD8; FIG. 3E
Description: as §2
To precipitate HA-tagged proteins, transfected cells were lysed in a buffer containing 5 mM EDTA, 50 mM Tris-Cl, 100 mM NaCl, 0.1% NP-40, and the protease inhibitor cocktail (Sigma-Aldrich). Cell lysates (1 mg proteins) were incubated with EZview™ anti-HA affinity beads sequentially incubated with a primary antibody (10 μg/mL) and protein A/G-Sepharose beads (GE Healthcare, Uppsala, Sweden) at 4° C. for 4 h. Pull down proteins were eluted in a 2×SDS denaturing buffer and subjected to Western blotting as described above. For HA-bead immunoprecipitation, 1 mg of protein was incubated with 10 ul of HA-bead at 4° C. for 4 h and washed. Then proteins were eluted in a 2×SDS denaturing buffer and electrophoresed in a SDS-PAGE gel and subjected to Western blotting as described above.

C/EBP-β [5] = experiment: Western blotting of C/EBP-β protein expression in 3T3-L1 cells; assay type: cell-based, mouse; conditions: FIG. 1E
Description: as §1, §2

[6] = 3T3-L1 cells treated with 0.5 μM MLN4924 before the differentiation, 0, 2, 4, 6, 8 days, FIG. 2B
[7] = knock down after the cells were induced to differentiation, FIG. 1D
[8] = siNEDD8 knock down, PCR at 0, 2, 4, 6, and 8 days after start of differentiation, FIG. 1F

## NS(=O)(=O)OC[C@@H]1C[C@@H](n2ccc3c(N[C@H]4CCc5ccccc54)ncnc32)C[C@@H]1O [MLN4924, reference compound]
PPAR-v [1]; 3T3-L1 cells treated with MLN4924 after the differentiation was induced, FIG. 2A
  expression of PPAR-v protein: suppresses
CD36; [6]
  CD36 at the mRNA level: decreased
FABP4; [6]
  FABP4 at the mRNA level: decreased
3T3-L1 cells; MLN4924 0.1 and 0.5 μM, before and after differentiation was induced, Oil-red O, FIG. 2A
  differentiation of 3T3L1 cells into adipocytes: suppressed
C/EBP-β [2]; [6]
  C/EBP-β at the mRNA level: decreased
PPAR-v [3]; [6]
  PPAR-v at the mRNA level: decreased

## COc1ccc(C2=NC(c3ccc(Cl)cc3)C(c3ccc(Cl)cc3)N2C(=O)N2CCNC(=O)C2)c(OC(C)C)c1 (stereo not drawn) [nutlin-3, 4-[4,5-Bis(4-chlorophenyl)-2-(2-isopropoxy-4-methoxy-phenyl)-4,5-dihydro-imidazole-1-carbonyl]-piperazin-2-one, reference compound]
3T3-L1 cells; nutlin-3 10 and 20 μM, before and after differentiation was induced, FIG. 5D
  adipose differentiation: suppressed

## siMDM2: MDM2 siRNA used in 3T3-L1; probably the mouse one, SEQ ID NO: 8, 5′-GCAAUGAUCUACAGAAAUUUAGUGG-3′ (other strand not given here)
3T3-L1 cells; 3T3-L1 transfected with siMDM2 10, 20 or 50 nM, differentiation induced after 2 days, FIG. 5C
  adipose differentiation: suppressed

## siNEDD8: siRNA against NEDD8; Table 1 siNEDD8 is human, SEQ ID NO: 1; text does not say which sequence was used in 3T3-L1 (CAGACAAGGUGGAGCGAAUCAAGGA; other strand not given here)
PPAR-v [1]; [7]
  expression of PPAR-v: suppressed
PPAR-v [1]; knock down before induction, 0, 2, 4, 6 and 8 days during differentiation, compared to control, time dependent, FIG. 1E
  expression of PPAR-v: decreased
CD36; [8]
  mRNA expression level of CD36: decreased
FABP4; [8]
  mRNA expression level of FABP4: decreased
3T3-L1 cells; [7]
  adipogenesis: suppressed
PPAR-v [4]
  ubiquitination of PPAR-v: increased
C/EBP-β [2]; [8]
  mRNA expression level of C/EBP-β: decreased
C/EBP-β [5]; 0, 2, 4, 8, 16, 24 h after the initiation of differentiation
  expression of C/EBP-β: decreased
C/EBP-β [5]; knock down before induction, 0, 2, 4, 6 and 8 days during differentiation, compared to control, time dependent
  expression of C/EBP-β: decreased
PPAR-v [3]; [8]
  mRNA expression level of PPAR-v: decreased
